Test results as given in patent US11248234B2, “Herbicide-resistant hydroxyphenylpyruvate dioxygenases” (BASF SE, priority 2015, dated 2022).

Experiments:
[1] = system: transgenic T1 Arabidopsis plants, Scenedesmus HPPD phenylalanine 363 exchanged by isoleucine; assay: T1 spray application; type: in vivo, Arabidopsis thaliana; details: FIG. 3; highest application rate
Protocol: (§1) Wildtype plants were sprayed in parallel at each application rate (two lower pots below dashed line) whereas T1 plants are represented by the five upper pots. Pictures were taken 8 days after treatment.
(§2) Transgenic T1 Arabidopsis plants were sprayed with the indicated amount of HPPD inhibiting herbicide. The T1 spray application is a fast method to evaluate the potential of transgenic traits even though a segregating population and only one event of respective traits is tested.

[2] = system: transgenic T1 Arabidopsis plants, Scenedesmus HPPD alanine 318 exchanged by glycine and leucine 350 substituted with methionine; assay: T1 spray application; type: in vivo, Arabidopsis thaliana; details: FIG. 3; pictures 8 days after treatment
Protocol: as §1, §2

Compound: Cc1c(C(=O)c2cnn(C)c2O)ccc(S(C)(=O)=O)c1C1=NOCC1 [Inhibitor 1, [3-(4,5-dihydroisoxazol-3-yl)-2-methyl-4-methylsulfonyl-phenyl]-(5-hydroxy-1-methyl-pyrazol-4-yl)methanone]
- tolerance of T1 plants to spray [1]: highly tolerant
- tolerance of T1 plants to spray [2]: good tolerance
